{"source": "patent US8163793B2", "about": "“Proline derivatives” (Hoffman-La Roche Inc., priority 2009, dated 2012)", "key": {"Cat L": {"molecular_target": "Cat L (UniProt P07711)", "assay": "Cathepsin enzyme inhibition assay (fluorogenic peptide substrate Z-Val-Val-Arg-AMC), Cathepsin L", "assay_type": "biochemical, human and mouse", "details": "enzyme 1 nM, substrate 20 μM, pH 6.5; read-out: CatL IC50", "method_in_brief": "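Cathepsin L at 1 nM was mixed with compound, then started with 20 μM Z-Val-Val-Arg-AMC in pH 6.5 potassium phosphate with EDTA, Triton X-100 and 5 mM DTT. AMC fluorescence (ex 360/em 465 nm) was followed over 20 min. IC50 is given in μM.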"}, "Cathepsin S": {"molecular_target": "Cathepsin S (UniProt P25774)", "assay": "Cathepsin enzyme inhibition assay (fluorogenic peptide substrate Z-Val-Val-Arg-AMC), Cathepsin S", "assay_type": "biochemical, human and mouse", "details": "enzyme 1 nM, substrate 20 μM, pH 6.5; read-out: CatS IC50", "method_in_brief": "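Human or mouse cathepsin S (1 nM) was run in 100 mM potassium phosphate pH 6.5 with 5 mM EDTA, 0.001% Triton X-100 and 5 mM DTT. The rise in AMC fluorescence from cleavage was measured, and IC50 values were calculated by standard methods and expressed in μM.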"}}, "data": [{"smiles": "C[C@H](Oc1ccc(S(=O)(=O)[C@@H]2C[C@H](C(=O)NC3(C#N)CC3)N(C(=O)C3(C)CC3)C2)c(Cl)c1)C(F)(F)F", "note": "[Example 200, (2R,4R)-4-[2-Chloro-4-((S)-2,2,2-trifluoro-1-methyl-ethoxy)-benzenesulfonyl]-1-(1-methyl-cyclopropanecarbonyl)-pyrrolidine-2-carboxylic acid (1-cyano-cyclopropyl)-amide]", "values": [{"measurement": "IC50", "setting": "Cat L", "value": "≥ 25", "unit": "µM"}, {"measurement": "IC50", "setting": "Cathepsin S", "value": 0.0467, "unit": "µM"}]}, {"smiles": "N#CC1(NC(=O)[C@@H]2C[C@@H](S(=O)(=O)c3ccc(OC4COC4)cc3Cl)CN2C(=O)C2(C(F)(F)F)CC2)CC1", "note": "[Example 201, (2S,4R)-4-[2-Chloro-4-(oxetan-3-yloxy)-benzenesulfonyl]-1-(1-trifluoromethyl-cyclopropanecarbonyl)-pyrrolidine-2-carboxylic acid (1-cyano-cyclopropyl)-amide]", "values": [{"measurement": "IC50", "setting": "Cat L", "value": "≥ 25", "unit": "µM"}, {"measurement": "IC50", "setting": "Cathepsin S", "value": 0.0034, "unit": "µM"}]}, {"smiles": "N#CC1(NC(=O)[C@@H]2C[C@@H](S(=O)(=O)c3ccccc3C(F)(F)F)CN2C(=O)C2(c3ccc(Cl)cc3)CC2)CC1", "note": "[Example 202, (2S,4R)-1-[1-(4-Chloro-phenyl)-cyclopropanecarbonyl]-4-(2-trifluoromethyl-benzenesulfonyl)-pyrrolidine-2-carboxylic acid (1-cyano-cyclopropyl)-amide]", "values": [{"measurement": "IC50", "setting": "Cat L", "value": 0.606, "unit": "µM"}, {"measurement": "IC50", "setting": "Cathepsin S", "value": 0.0001, "unit": "µM"}]}, {"smiles": "C[C@H](Oc1ccc(S(=O)(=O)[C@@H]2C[C@@H](C(=O)NC3(C#N)CC3)N(C(=O)C(C)(C)C)C2)c(Cl)c1)C(F)(F)F", "note": "[Example 203, (2S,4R)-4-[2-Chloro-4-((S)-2,2,2-trifluoro-1-methyl-ethoxy)-benzenesulfonyl]-1-(2,2-dimethyl-propionyl)-pyrrolidine-2-carboxylic acid (1-cyano-cyclopropyl)-amide]", "values": [{"measurement": "IC50", "setting": "Cat L", "value": 9.33, "unit": "µM"}, {"measurement": "IC50", "setting": "Cathepsin S", "value": 0.0008, "unit": "µM"}]}, {"smiles": "C[C@H](Oc1ccc(S(=O)(=O)[C@@H]2C[C@H](C(=O)NC3(C#N)CC3)N(C(=O)C(C)(C)C)C2)c(Cl)c1)C(F)(F)F", "note": "[Example 204, (2R,4R)-4-[2-Chloro-4-((S)-2,2,2-trifluoro-1-methyl-ethoxy)-benzenesulfonyl]-1-(2,2-dimethyl-propionyl)-pyrrolidine-2-carboxylic acid (1-cyano-cyclopropyl)-amide]", "values": [{"measurement": "IC50", "setting": "Cat L", "value": "≥ 25", "unit": "µM"}, {"measurement": "IC50", "setting": "Cathepsin S", "value": 0.205, "unit": "µM"}]}, {"smiles": "N#CC1(NC(=O)[C@@H]2C[C@@H](S(=O)(=O)c3ccccc3C(F)(F)F)CN2C(=O)C2(C(F)(F)F)CC2)CC1", "note": "[Example 205, (2S,4R)-4-(2-Trifluoromethyl-benzenesulfonyl)-1-(1-trifluoromethyl-cyclopropanecarbonyl)-pyrrolidine-2-carboxylic acid (1-cyano-cyclopropyl)-amide]", "values": [{"measurement": "IC50", "setting": "Cat L", "value": 72, "unit": "µM"}, {"measurement": "IC50", "setting": "Cathepsin S", "value": 0.0002, "unit": "µM"}]}, {"smiles": "N#CC1(NC(=O)[C@@H]2C[C@@H](S(=O)(=O)c3ccccc3C(F)(F)F)CN2C(=O)CC(F)(F)F)CC1", "note": "[Example 206, (2S,4R)-4-(2-Trifluoromethyl-benzenesulfonyl)-1-(3,3,3-trifluoro-propionyl)-pyrrolidine-2-carboxylic acid (1-cyano-cyclopropyl)-amide]", "values": [{"measurement": "IC50", "setting": "Cat L", "value": "≥ 25", "unit": "µM"}, {"measurement": "IC50", "setting": "Cathepsin S", "value": 0.0002, "unit": "µM"}]}, {"smiles": "CC1(C(=O)N2C[C@H](S(=O)(=O)c3ccccc3C(F)(F)F)C[C@H]2C(=O)NC2(C#N)CC2)CC1", "note": "[Example 207, (2S,4R)-1-(1-Methyl-cyclopropanecarbonyl)-4-(2-trifluoromethyl-benzenesulfonyl)-pyrrolidine-2-carboxylic acid (1-cyano-cyclopropyl)-amide]", "values": [{"measurement": "IC50", "setting": "Cat L", "value": "≥ 25", "unit": "µM"}, {"measurement": "IC50", "setting": "Cathepsin S", "value": 0.0003, "unit": "µM"}]}, {"smiles": "CC(C)(C)OC(=O)N1C[C@H](S(=O)(=O)c2ccc(OCC(F)(F)F)cc2C(F)(F)F)C[C@H]1C(=O)NC1(C#N)CC1", "note": "[Example 208, (2S,4R)-2-(1-Cyano-cyclopropylcarbamoyl)-4-[4-(2,2,2-trifluoro-ethoxy)-2-trifluoromethyl-benzenesulfonyl]-pyrrolidine-1-carboxylic acid tert-butyl ester]", "values": [{"measurement": "IC50", "setting": "Cat L", "value": "≥ 25", "unit": "µM"}, {"measurement": "IC50", "setting": "Cathepsin S", "value": 0.0008, "unit": "µM"}]}, {"smiles": "N#CC1(NC(=O)[C@@H]2C[C@@H](S(=O)(=O)c3ccc(F)cc3C(F)(F)F)CN2C(=O)C2(C(F)(F)F)CC2)CC1", "note": "[Example 209, (2S,4R)-4-(4-Fluoro-2-trifluoromethyl-benzenesulfonyl)-1-(1-trifluoromethyl-cyclopropanecarbonyl)-pyrrolidine-2-carboxylic acid (1-cyano-cyclopropyl)-amide]", "values": [{"measurement": "IC50", "setting": "Cat L", "value": "≥ 25", "unit": "µM"}, {"measurement": "IC50", "setting": "Cathepsin S", "value": 0.0002, "unit": "µM"}]}, {"smiles": "CC(C)(C)C(=O)N1C[C@H](S(=O)(=O)c2ccc(F)cc2C(F)(F)F)C[C@H]1C(=O)NC1(C#N)CC1", "note": "[Example 210, (2S,4R)-1-(2,2-Dimethyl-propionyl)-4-(4-fluoro-2-trifluoromethyl-benzenesulfonyl)-pyrrolidine-2-carboxylic acid (1-cyano-cyclopropyl)-amide]", "values": [{"measurement": "IC50", "setting": "Cat L", "value": "≥ 25", "unit": "µM"}, {"measurement": "IC50", "setting": "Cathepsin S", "value": 0.0004, "unit": "µM"}]}, {"smiles": "CC1(C(=O)N2C[C@H](S(=O)(=O)c3ccc(OCC(F)(F)F)cc3C(F)(F)F)C[C@H]2C(=O)NC2(C#N)CC2)CC1", "note": "[Example 211, (2S,4R)-1-(1-Methyl-cyclopropanecarbonyl)-4-[4-(2,2,2-trifluoro-ethoxy)-2-trifluoromethyl-benzenesulfonyl]-pyrrolidine-2-carboxylic acid (1-cyano-cyclopropyl)-amide]", "values": [{"measurement": "IC50", "setting": "Cat L", "value": 63.9, "unit": "µM"}, {"measurement": "IC50", "setting": "Cathepsin S", "value": 0.0003, "unit": "µM"}]}, {"smiles": "CC(C)(C)C(=O)N1C[C@H](S(=O)(=O)c2ccc(OCC(F)(F)F)cc2C(F)(F)F)C[C@H]1C(=O)NC1(C#N)CC1", "note": "[Example 212, (2S,4R)-1-(2,2-Dimethyl-propionyl)-4-[4-(2,2,2-trifluoro-ethoxy)-2-trifluoromethyl-benzenesulfonyl]-pyrrolidine-2-carboxylic acid (1-cyano-cyclopropyl)-amide]", "values": [{"measurement": "IC50", "setting": "Cat L", "value": "≥ 25", "unit": "µM"}, {"measurement": "IC50", "setting": "Cathepsin S", "value": 0.0003, "unit": "µM"}]}, {"smiles": "N#CC1(NC(=O)[C@@H]2C[C@@H](S(=O)(=O)c3ccccc3Cl)CN2C(=O)C2(C(F)(F)F)CC2)CC1", "note": "[Example 213, (2S,4R)-4-(2-Chloro-benzenesulfonyl)-1-(1-trifluoromethyl-cyclopropanecarbonyl)-pyrrolidine-2-carboxylic acid (1-cyano-cyclopropyl)-amide]", "values": [{"measurement": "IC50", "setting": "Cat L", "value": 7.97, "unit": "µM"}, {"measurement": "IC50", "setting": "Cathepsin S", "value": 0.0004, "unit": "µM"}]}, {"smiles": "CC1(C(=O)N2C[C@H](S(=O)(=O)c3ccccc3Cl)C[C@H]2C(=O)NC2(C#N)CC2)CC1", "note": "[Example 214, (2S,4R)-4-(2-Chloro-benzenesulfonyl)-1-(1-methyl-cyclopropanecarbonyl)-pyrrolidine-2-carboxylic acid (1-cyano-cyclopropyl)-amide]", "values": [{"measurement": "IC50", "setting": "Cat L", "value": 11.3, "unit": "µM"}, {"measurement": "IC50", "setting": "Cathepsin S", "value": 0.0005, "unit": "µM"}]}, {"smiles": "N#CC1(NC(=O)[C@@H]2C[C@@H](S(=O)(=O)c3ccccc3Cl)CN2C(=O)C2(c3ccccc3)CC2)CC1", "note": "[Example 216, (2S,4R)-4-(2-Chloro-benzenesulfonyl)-1-(1-phenyl-cyclopropanecarbonyl)-pyrrolidine-2-carboxylic acid (1-cyano-cyclopropyl)-amide]", "values": [{"measurement": "IC50", "setting": "Cat L", "value": 0.285, "unit": "µM"}, {"measurement": "IC50", "setting": "Cathepsin S", "value": 0.0002, "unit": "µM"}]}, {"smiles": "CC(C)(C)C(=O)N1C[C@H](S(=O)(=O)c2ccccc2Cl)C[C@H]1C(=O)NC1(C#N)CC1", "note": "[Example 217, (2S,4R)-4-(2-Chloro-benzenesulfonyl)-1-(2,2-dimethyl-propionyl)-pyrrolidine-2-carboxylic Acid (1-cyano-cyclopropyl)-amide]", "values": [{"measurement": "IC50", "setting": "Cat L", "value": 14, "unit": "µM"}, {"measurement": "IC50", "setting": "Cathepsin S", "value": 0.0007, "unit": "µM"}]}, {"smiles": "CC(C)C(=O)N1C[C@H](S(=O)(=O)c2ccccc2Cl)C[C@H]1C(=O)NC1(C#N)CC1", "note": "[Example 218, (2S,4R)-4-(2-Chloro-benzenesulfonyl)-1-isobutyryl-pyrrolidine-2-carboxylic acid (1-cyano-cyclopropyl)-amide]", "values": [{"measurement": "IC50", "setting": "Cat L", "value": 14.6, "unit": "µM"}, {"measurement": "IC50", "setting": "Cathepsin S", "value": 0.0004, "unit": "µM"}]}, {"smiles": "N#CC1(NC(=O)[C@@H]2C[C@@H](S(=O)(=O)c3ccccc3Cl)CN2C(=O)CC(F)(F)F)CC1", "note": "[Example 219, (2S,4R)-4-(2-Chloro-benzenesulfonyl)-1-(3,3,3-trifluoro-propionyl)-pyrrolidine-2-carboxylic Acid (1-cyano-cyclopropyl)-amide]", "values": [{"measurement": "IC50", "setting": "Cat L", "value": 12.6, "unit": "µM"}, {"measurement": "IC50", "setting": "Cathepsin S", "value": 0.0003, "unit": "µM"}]}, {"smiles": "CC(C)CC(=O)N1C[C@H](S(=O)(=O)c2ccccc2Cl)C[C@H]1C(=O)NC1(C#N)CC1", "note": "[Example 220, (2S,4R)-4-(2-Chloro-benzenesulfonyl)-1-(3-methyl-butyryl)-pyrrolidine-2-carboxylic acid (1-cyano-cyclopropyl)-amide]", "values": [{"measurement": "IC50", "setting": "Cat L", "value": 17.8, "unit": "µM"}, {"measurement": "IC50", "setting": "Cathepsin S", "value": 0.0004, "unit": "µM"}]}, {"smiles": "CC(C)(C)OC(=O)N1C[C@H](S(=O)(=O)c2ccc(Cl)cc2OCC(F)(F)F)C[C@H]1C(=O)NC1(C#N)CC1", "note": "[Example 221, (2S,4R)-4-[4-Chloro-2-(2,2,2-trifluoro-ethoxy)-benzenesulfonyl]-2-(1-cyano-cyclopropylcarbamoyl)-pyrrolidine-1-carboxylic acid tert-butyl ester]", "values": [{"measurement": "IC50", "setting": "Cat L", "value": "≥ 25", "unit": "µM"}, {"measurement": "IC50", "setting": "Cathepsin S", "value": 0.13, "unit": "µM"}]}, {"smiles": "CC1(C(=O)N2C[C@H](S(=O)(=O)c3ccc(Cl)cc3Cl)C[C@H]2C(=O)NC2(C#N)CC2)CC1", "note": "[Example 222, (2S,4R)-4-(2,4-Dichloro-benzenesulfonyl)-1-(1-methyl-cyclopropanecarbonyl)-pyrrolidine-2-carboxylic acid (1-cyano-cyclopropyl)-amide]", "values": [{"measurement": "IC50", "setting": "Cat L", "value": 18.6, "unit": "µM"}, {"measurement": "IC50", "setting": "Cathepsin S", "value": 0.0012, "unit": "µM"}]}, {"smiles": "N#CC1(NC(=O)[C@@H]2C[C@@H](S(=O)(=O)c3ccc(Cl)cc3Cl)CN2C(=O)C2(c3ccc(Cl)cc3)CC2)CC1", "note": "[Example 223, (2S,4R)-1-[1-(4-Chloro-phenyl)-cyclopropanecarbonyl]-4-(2,4-dichloro-benzenesulfonyl)-pyrrolidine-2-carboxylic acid (1-cyano-cyclopropyl)-amide]", "values": [{"measurement": "IC50", "setting": "Cat L", "value": 0.045, "unit": "µM"}, {"measurement": "IC50", "setting": "Cathepsin S", "value": 0.0001, "unit": "µM"}]}, {"smiles": "N#CC1(NC(=O)[C@@H]2C[C@@H](S(=O)(=O)c3ccc(Cl)cc3Cl)CN2C(=O)C2(c3ccccc3)CC2)CC1", "note": "[Example 224, (2S,4R)-4-(2,4-Dichloro-benzenesulfonyl)-1-(1-phenyl-cyclopropanecarbonyl)-pyrrolidine-2-carboxylic acid (1-cyano-cyclopropyl)-amide]", "values": [{"measurement": "IC50", "setting": "Cat L", "value": 1, "unit": "µM"}, {"measurement": "IC50", "setting": "Cathepsin S", "value": 0.0002, "unit": "µM"}]}]}
